Test results from PMC8682738, “Constrained peptides mimic a viral suppressor of RNA silencing” (Nucleic Acids Research, 2021).
Where “and” joins values, the source holds several entries; their conditions need not be identical. Equal entries are not always repeated. Positions of bridges follow the written chain, without caps; N, C: chain ends. Non-standard residues stand in square brackets, D forms with d. Residues, ends and D or L forms follow the SMILES beside them. *: point of attachment. FITC = O=C1OC2(c3ccc(O)cc3Oc3cc(O)ccc32)c2ccc(NC(=S)*)cc21; R8 = C=CCCCCCC[C@@](C)(N)C(=O)O; S5 = C=CCCC[C@](C)(N)C(=O)O; AEEA = NCCOCCOCC(=O)O

What was measured:
[1] = CD spectroscopy, secondary structure content; format: physicochemical; settings: fluorescein-labeled peptide 75 μM, 10 mM sodium phosphate pH 7.4, CDNN/PEPFIT; for Helix (α-helicity): unbound
Method: Spectra of fluorescein-labeled peptides were recorded with a J-715 circular dichroism spectrometer (Jasco) using a stoppered quartz cuvette (1 mm; Hellma). Peptide samples (c = 75 μM) were prepared in buffer: 10 mM disodium hydrogen phosphate, pH 7.4. For each sample, 10 CD spectra were measured between λ = 190 and 260 nm with continuous scan mode (10 mdeg sensitivity, 1.0 nm resolution, 1.0 nm bandwidth, 2 s integration time, 50 nm/min scan rate). Obtained spectra were averaged, then subtracted from a reference buffer spectrum and smoothed using a fast Fourier transform filter (FFT filter). The mean residue ellipticity (Θ) (deg·cm^2·dmol^−1·10^4) was calculated using Formula (2) and plotted against wavelength (λ) (nm). The ratio of secondary structure elements was calculated with CDNN using the PEPFIT set of reference spectra for secondary structure determination ([45],[46]):(2) where [Θ]m = mean molar ellipticity per peptide bond (degree·cm^2·dmol^−1·10^4), Θ = measured ellipticity (degree), d = optical path length (cm), cg = mass concentration (g·l^−1), MRW = mean residue weight, M = molar mass of the peptide (g·mol^−1) and N = number of peptide bonds.

proteinase K = proteinase K (Parengyodontium album, UniProt P06873); experiment: Protease stability assay; format: in vitro ADME; settings: proteinase K 10 μg·ml^−1, fluorescein-labeled peptide 50 μM, 10 mM Tris pH 8.0, 150 mM NaCl, room temperature, HPLC absorbance 210 nm, exponential decay fit
Chain of proteinase K (P06873 106-384): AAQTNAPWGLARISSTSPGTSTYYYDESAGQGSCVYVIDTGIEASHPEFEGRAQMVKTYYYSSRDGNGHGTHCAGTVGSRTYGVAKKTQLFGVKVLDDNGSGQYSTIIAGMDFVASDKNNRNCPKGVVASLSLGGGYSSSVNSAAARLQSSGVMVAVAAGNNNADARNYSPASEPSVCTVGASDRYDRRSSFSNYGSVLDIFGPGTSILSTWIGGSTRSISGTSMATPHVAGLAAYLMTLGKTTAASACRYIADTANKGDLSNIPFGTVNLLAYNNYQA
Method: Protease stability assays were performed in analogy to a previously published protocol ([47]). Stocks of fluorescein-labeled peptides were prepared to a concentration of 55.5 μM in assay buffer (10 mM Tris, pH 8.0, 150 mM NaCl) and separately stocks of proteinase K also in assay buffer (c = 100 μg·ml^−1). To begin each experiment, peptide and proteinase K stocks were mixed (final concentrations: c = 10 μg·ml^−1 proteinase K, c = 50 μM fluorescein-labeled peptide; final volume = 500 μl) and incubated at room temperature. At each time point, 50 μl of the reaction mixture was quenched by adding 100 μl of TFA/ACN/H2O (v/v/v, 1:49:49) and subsequently incubated for 2 min on ice. Following centrifugation (15 min, 13200 rpm, 4°C), samples (45 μl) were monitored by analytical HPLC using a linear gradient of 10–60% HPLC solvent B over 20 min. The amount of remaining peptide was quantified via absorbance at λ = 210 nm (intact peptide (%)) and plotted against time (t) (h). Half-life (t1/2) was calculated by fitting the data to an exponential decay using the software Prism 5.0 (GraphPad).

pal-RNA duplex = experiment: ITC of N-terminally acetylated peptides with pal-RNA duplex; format: binding
Method: Isothermal titration calorimetry (ITC) was conducted using a MicroCal VP-ITC (Malvern Panalytical). Before measurement, oligonucleotide and peptide samples were dissolved in PBS and degassed using a ThermoVac (Malvern Panalytical) and heated to 30°C. N-terminally acetylated peptides (c = 3–12 μM) were then transferred into the sample cell and oligonucleotides (c = 12–72 μM) were transferred into the syringe. 35 Injections per measurement were performed at 30°C (8 μl injection volume, 2 s injection time, 180 s spacing, high feedback mode) with an initial delay of 60 s and a stirring speed of 307 rpm. Measurements were performed in triplicate. Using the MicroCal LLC ITC software (Origin; OriginLab Corporation), the heat associated with each injection was calculated by integrating the area under the curve in microcalories per second [μca/s] versus time [min] for each injection and then normalized to concentration. A ‘single set of identical binding sites’ model was used to fit the binding curves from which thermodynamic binding parameters (ΔG, ΔH, ΔS, N and Kd) were obtained.

ds pal-RNA = experiment: EMSA with ds pal-RNA; format: binding; settings: fluorescein-labeled peptide 6 μM, RNA 3 μM, 10% native PAGE, 4°C
Method: Electrophoretic mobility shift assays (EMSAs) were performed using a Bio-Rad Mini-Protean gel system paired with a direct current (DC) power source (PowerPac™ HC, Bio-Rad). Typically, 6 μl solutions containing ds RNA (c = 3 μM) and fluorescein-labeled peptide (c = 6 μM) were incubated in binding buffer (10 mM Tris (pH 8.0), 0.5 mM EDTA, 12.5% glycerol and 150 mM KCl) at 4°C for 1 h. After incubation, bound RNA was resolved from peptide-free RNA using 10% non-denaturing polyacrylamide gels at 120 V in running buffer (25 mM Tris (pH 8.0), 200 mM glycine, 20 mM NaCl) at 4°C for 1 h. Visualization of fluorescent gel-bound species was conducted using a Typhoon Trio + fluorescence scanner (GE Healthcare Life Sciences). For nucleic acid visualization, gels were stained using 2 μl of SYBR™ gold nucleic acid gel dye (Molecular Probes) in 20 ml of TAE buffer (40 mM Tris, 1 mM EDTA, 20 mM acetic acid) for 45 min at RT before being visualized using a FluorChem™ gel documentation system (Alpha Innotech). To assess B3 binding to different ds RNA sequences (Supplementary Figure S20), 6 μl solutions containing hairpin RNA (c = 1 μM) and fluorescein-labeled B3 (c = 2 μM) were incubated in binding buffer (TAE and 10% glycerol) at RT for 1 h, and then resolved using 15% non-denaturing polyacrylamide gels (acrylamide/bis-acrylamide (19:1) in TAE) at 150 V in running buffer (TAE) at 4°C for 1.5 h. Visualization of fluorescent gel-bound species was conducted using a Bio-Rad ChemiDoc (Bio-Rad). Subsequently, gels were stained with SYBR™ gold nucleic acid gel dye (Invitrogen) as described above and visualized using the same imaging system. To assess B3 binding to pre–miR-21 (Supplementary Figure S24), the RNA was prepared at a fixed concentration (c = 1 μM) and incubated with varying concentrations of fluorescein-labeled B3 (c = 0–5 μM) in binding buffer (TAE and 10% glycerol) at RT for 1 h. After incubation, bound nucleic acid complexes were resolved using 15% non-denaturing polyacrylamide gels (acrylamide/bis-acrylamide (19:1) in TAE) at 150 V in running buffer (TAE) at 4°C for 1.5 h, followed by visualization and staining with SYBR™ gold nucleic acid gel dye (Invitrogen).

CC(C)C[C@H](NC(=O)[C@H](CCC(=O)O)NC(=O)[C@H](CO)NC(=O)[C@H](CCCNC(=N)N)NC(=O)[C@H](CCCNC(=N)N)NC(=O)[C@H](CCC(N)=O)NC(=O)[C@H](CCC(=O)O)NC(=O)[C@H](CO)NC(=O)[C@@H]1CCCN1C(=O)[C@H](CO)NC(=O)[C@H](CCCCN)NC(=O)[C@H](Cc1c[nH]cn1)NC(=O)CNC(=O)[C@H](CCCNC(=N)N)NC(=O)[C@H](CCC(=O)O)NC(=O)[C@H](CCCCN)NC(=O)[C@H](CCCNC(=N)N)NC(=O)[C@H](CC(N)=O)NC(=O)[C@]1(C)CCCC=CCCCCCC[C@@](C)(NC(=O)[C@H](CCC(N)=O)NC(=O)[C@H](CCCCN)NC(=O)[C@H](CCCCN)NC(=O)COCCOCCNC(=S)Nc2ccc3c(c2)C(=O)OC32c3ccc(O)cc3Oc3cc(O)ccc32)C(=O)N[C@@H](CCC(N)=O)C(=O)N[C@@H](CCCNC(=N)N)C(=O)N[C@@H](CCCCN)C(=O)N[C@@H](CCCNC(=N)N)C(=O)N[C@@H](Cc2c[nH]cn2)C(=O)N[C@@H](CCCCN)C(=O)N1)C(=O)N[C@@H](Cc1c[nH]c2ccccc12)C(=O)N[C@@H](Cc1c[nH]cn1)C(=O)N[C@@H](C)C(=O)N[C@@H](CCCNC(=N)N)C(N)=O [A1] ({FITC-AEEA}-KKQ[R8]QRKRHK[S5]NRKERGHKSPSEQRRSELWHAR-NH2; staple 4-11)
half-life t1/2: 3 min | Random coil [1]: 51.4% | β-Sheet [1]: 2.9% | β-Turn [1]: 9.6% | Helix (α-helicity) [1]: 39.1% | Half-life (t1/2) (proteinase K): 2.4 min

CC(C)C[C@H](NC(=O)[C@H](CCC(=O)O)NC(=O)[C@H](CO)NC(=O)[C@H](CCCNC(=N)N)NC(=O)[C@H](CCCNC(=N)N)NC(=O)[C@H](CCC(N)=O)NC(=O)[C@H](CCC(=O)O)NC(=O)[C@H](CO)NC(=O)[C@@H]1CCCN1C(=O)[C@H](CO)NC(=O)[C@H](CCCCN)NC(=O)[C@H](Cc1c[nH]cn1)NC(=O)CNC(=O)[C@H](CCCNC(=N)N)NC(=O)[C@]1(C)CCCC=CCCC[C@](C)(NC(=O)[C@H](CCCCN)NC(=O)[C@H](Cc2c[nH]cn2)NC(=O)[C@H](CCCNC(=N)N)NC(=O)[C@H](CCCCN)NC(=O)[C@H](CCCNC(=N)N)NC(=O)[C@H](CCC(N)=O)NC(=O)[C@H](C)NC(=O)[C@H](CCC(N)=O)NC(=O)[C@H](CCCCN)NC(=O)[C@H](CCCCN)NC(=O)COCCOCCNC(=S)Nc2ccc3c(c2)C(=O)OC32c3ccc(O)cc3Oc3cc(O)ccc32)C(=O)N[C@@H](CC(N)=O)C(=O)N[C@@H](CCCNC(=N)N)C(=O)N[C@@H](CCCCN)C(=O)N1)C(=O)N[C@@H](Cc1c[nH]c2ccccc12)C(=O)N[C@@H](Cc1c[nH]cn1)C(=O)N[C@@H](C)C(=O)N[C@@H](CCCNC(=N)N)C(N)=O [A3] ({FITC-AEEA}-KKQAQRKRHK[S5]NRK[S5]RGHKSPSEQRRSELWHAR-NH2; staple 11-15)
half-life t1/2: 3 min | Random coil [1]: 52.8% | β-Sheet [1]: 10.6% | β-Turn [1]: 10.1% | Helix (α-helicity) [1]: 24.0% | Half-life (t1/2) (proteinase K): 3.5 min

CC(C)C[C@H](NC(=O)[C@H](CCC(=O)O)NC(=O)[C@H](CO)NC(=O)[C@H](CCCNC(=N)N)NC(=O)[C@H](CCCNC(=N)N)NC(=O)[C@H](CCC(N)=O)NC(=O)[C@H](CCC(=O)O)NC(=O)[C@H](CO)NC(=O)[C@@H]1CCCN1C(=O)[C@H](CO)NC(=O)[C@H](CCCCN)NC(=O)[C@H](Cc1c[nH]cn1)NC(=O)CNC(=O)[C@H](CCCNC(=N)N)NC(=O)[C@H](CCC(=O)O)NC(=O)[C@H](CCCCN)NC(=O)[C@H](CCCNC(=N)N)NC(=O)[C@H](CC(N)=O)NC(=O)[C@]1(C)CCCC=CCCC[C@](C)(NC(=O)[C@H](CCCNC(=N)N)NC(=O)[C@H](CCC(N)=O)NC(=O)[C@H](C)NC(=O)[C@H](CCC(N)=O)NC(=O)[C@H](CCCCN)NC(=O)[C@H](CCCCN)NC(=O)COCCOCCNC(=S)Nc2ccc3c(c2)C(=O)OC32c3ccc(O)cc3Oc3cc(O)ccc32)C(=O)N[C@@H](CCCNC(=N)N)C(=O)N[C@@H](Cc2c[nH]cn2)C(=O)N[C@@H](CCCCN)C(=O)N1)C(=O)N[C@@H](Cc1c[nH]c2ccccc12)C(=O)N[C@@H](Cc1c[nH]cn1)C(=O)N[C@@H](C)C(=O)N[C@@H](CCCNC(=N)N)C(N)=O [A2] ({FITC-AEEA}-KKQAQR[S5]RHK[S5]NRKERGHKSPSEQRRSELWHAR-NH2; staple 7-11)
half-life t1/2: 3 min | Random coil [1]: 51.3% | β-Sheet [1]: 21.6% | β-Turn [1]: 7.9% | Helix (α-helicity) [1]: 21.9% | Half-life (t1/2) (proteinase K): 2.3 min

CC(C)C[C@H](NC(=O)[C@]1(C)CCCC=CCCC[C@](C)(NC(=O)[C@H](CCC(=O)O)NC(=O)[C@H](CO)NC(=O)[C@@H]2CCCN2C(=O)[C@H](CO)NC(=O)[C@H](CCCCN)NC(=O)[C@H](Cc2c[nH]cn2)NC(=O)CNC(=O)[C@H](CCCNC(=N)N)NC(=O)[C@H](CCC(=O)O)NC(=O)[C@H](CCCCN)NC(=O)[C@H](CCCNC(=N)N)NC(=O)[C@H](CC(N)=O)NC(=O)[C@]2(C)CCCC=CCCCCCC[C@@](C)(NC(=O)[C@H](CCC(N)=O)NC(=O)[C@H](CCCCN)NC(=O)[C@H](CCCCN)NC(=O)COCCOCCNC(=S)Nc3ccc4c(c3)C(=O)OC43c4ccc(O)cc4Oc4cc(O)ccc43)C(=O)N[C@@H](CCC(N)=O)C(=O)N[C@@H](CCCNC(=N)N)C(=O)N[C@@H](CCCCN)C(=O)N[C@@H](CCCNC(=N)N)C(=O)N[C@@H](Cc3c[nH]cn3)C(=O)N[C@@H](CCCCN)C(=O)N2)C(=O)N[C@@H](CCCNC(=N)N)C(=O)N[C@@H](CCCNC(=N)N)C(=O)N[C@@H](CO)C(=O)N1)C(=O)N[C@@H](Cc1c[nH]c2ccccc12)C(=O)N[C@@H](Cc1c[nH]cn1)C(=O)N[C@@H](C)C(=O)N[C@@H](CCCNC(=N)N)C(N)=O [B1] ({FITC-AEEA}-KKQ[R8]QRKRHK[S5]NRKERGHKSPSE[S5]RRS[S5]LWHAR-NH2; staple 4-11, 24-28)
Kd (pal-RNA duplex; N-terminally acetylated peptide, PBS pH 7.4, 30°C, single set of identical binding sites model, triplicate, errors 1σ): 0.26 µM | fold increased affinity compared to linear peptide wt33 (pal-RNA duplex; unlabeled analogs, pal-RNA): 5 fold | binding to ds pal-RNA in EMSA (ds pal-RNA): full disappearance of the ds pal-RNA band | Random coil [1]: 13.8% | β-Sheet [1]: 19.0% | β-Turn [1]: 13.1% | Helix (α-helicity) [1]: 81.8% and 82–85% | Half-life (t1/2) (proteinase K): 829 min
